Test results: PMC5218480 (PLoS ONE, 2017)

System: MV-4-11 cells
Experiment: Gene expression microarray analysis (Affymetrix PrimeView) and GSEA
Type: cell-based, human
Design: RFU PODN (11730768_x_at) / Fold change /veh PODN (11730768_x_at) / RFU LINC00158 (11744669_a_at) / Fold change /veh LINC00158 (11744669_a_at) / RFU DUSP10 (11751237_a_at) / Fold change /veh DUSP10 (11751237_a_at) / RFU ID3 (11757404_x_at) / Fold change /veh ID3 (11757404_x_at) / RFU PLEKHG5 (11737974_s_at) / Fold change /veh PLEKHG5 (11737974_s_at) / RFU LRRC4B (11730491_at) / Fold change /veh LRRC4B (11730491_at) / RFU GIMAP4 (11747438_a_at) / Fold change /veh GIMAP4 (11747438_a_at) / RFU KRT8 (11758183_x_at) / Fold change /veh KRT8 (11758183_x_at) / RFU CNN1 (11734310_a_at) / Fold change /veh CNN1 (11734310_a_at) / RFU VPS37D (11726825_at) / Fold change /veh VPS37D (11726825_at) / RFU C10orf10 (11716522_x_at) / Fold change /veh C10orf10 (11716522_x_at) / RFU KIR2DL2 /// KIR2DL4 /// KIR2DL5A /// KIR2DL5B /// KIR2DS1 /// KIR2DS2 /// KIR2DS3 /// KIR2DS4 /// KIR3DL3 /// KIR3DL3 /// KIR3DS1 (11738374_at) / Fold change /veh KIR2DL2 /// KIR2DL4 /// KIR2DL5A /// KIR2DL5B /// KIR2DS1 /// KIR2DS2 /// KIR2DS3 /// KIR2DS4 /// KIR3DL3 /// KIR3DL3 /// KIR3DS1 (11738374_at) / RFU C1QL1 (11718748_at) / Fold change /veh C1QL1 (11718748_at) / RFU TMPRSS4 (11747572_a_at) / Fold change /veh TMPRSS4 (11747572_a_at) / RFU HAMP (11756126_x_at) / Fold change /veh HAMP (11756126_x_at) / RFU RNFT2 (11725882_a_at) / Fold change /veh RNFT2 (11725882_a_at) / RFU NR4A2 (11747474_a_at) / Fold change /veh NR4A2 (11747474_a_at) / RFU ABCC12 (11746883_a_at) / Fold change /veh ABCC12 (11746883_a_at) / RFU TMEM136 (11760407_x_at) / Fold change /veh TMEM136 (11760407_x_at) / RFU CLDN22 /// WWC2 (11732394_at) / Fold change /veh CLDN22 /// WWC2 (11732394_at) / RFU HLA-DPB1 (11760878_x_at) / Fold change /veh HLA-DPB1 (11760878_x_at) / RFU SPINT1 (11716480_a_at) / Fold change /veh SPINT1 (11716480_a_at) / RFU GAP43 (11754022_s_at) / Fold change /veh GAP43 (11754022_s_at) / RFU A4GNT (11735810_at) / Fold change /veh A4GNT (11735810_at) / RFU PRB3 (11715151_x_at) / Fold change /veh PRB3 (11715151_x_at) / RFU TUBB4B (11761932_at) / Fold change /veh TUBB4B (11761932_at) / RFU CAPN14 (11732068_a_at) / Fold change /veh CAPN14 (11732068_a_at) / RFU TMCC2 (11721928_a_at) / Fold change /veh TMCC2 (11721928_a_at) / RFU IRGQ (11745062_a_at) / Fold change /veh IRGQ (11745062_a_at) / RFU FAM174B (11720279_a_at) / Fold change /veh FAM174B (11720279_a_at) / RFU TMPRSS4 (11748680_a_at) / Fold change /veh TMPRSS4 (11748680_a_at) / RFU FAM212B (11763350_a_at) / Fold change /veh FAM212B (11763350_a_at) / RFU PLEKHG5 (11743358_a_at) / Fold change /veh PLEKHG5 (11743358_a_at) / RFU ZSCAN30 (11745921_a_at) / Fold change /veh ZSCAN30 (11745921_a_at) / RFU CMKLR1 (11741424_a_at) / Fold change /veh CMKLR1 (11741424_a_at) / RFU LOC101060620 /// MAPK8IP1 (11723275_at) / Fold change /veh LOC101060620 /// MAPK8IP1 (11723275_at) / RFU SPTSSB (11747773_x_at) / Fold change /veh SPTSSB (11747773_x_at) / RFU PRSS12 (11739890_at) / Fold change /veh PRSS12 (11739890_at) / RFU BIN1 (11741810_x_at) / Fold change /veh BIN1 (11741810_x_at) / RFU WNT11 (11732464_a_at) / Fold change /veh WNT11 (11732464_a_at) / RFU C10orf10 (11716521_a_at) / Fold change /veh C10orf10 (11716521_a_at) / RFU C5orf56 (11738089_at) / Fold change /veh C5orf56 (11738089_at) / RFU CYB561 (11721691_x_at) / Fold change /veh CYB561 (11721691_x_at) / RFU ANKRD19P (11752326_a_at) / Fold change /veh ANKRD19P (11752326_a_at) / RFU OR2T12 /// OR2T33 /// OR2T8 (11738714_s_at) / Fold change /veh OR2T12 /// OR2T33 /// OR2T8 (11738714_s_at) / RFU VCAN (11748164_a_at) / Fold change /veh VCAN (11748164_a_at) / RFU JSRP1 (11732532_at) / Fold change /veh JSRP1 (11732532_at) / RFU KRTAP10-11 (11738290_x_at) / Fold change /veh KRTAP10-11 (11738290_x_at) / RFU MYO3A (11730013_a_at) / Fold change /veh MYO3A (11730013_a_at) / RFU EBF3 (11725865_a_at) / Fold change /veh EBF3 (11725865_a_at) / RFU CAMK2N1 (11719241_x_at) / Fold change /veh CAMK2N1 (11719241_x_at) / RFU C5orf56 (11738088_a_at) / Fold change /veh C5orf56 (11738088_a_at) / RFU OLFML3 (11715873_a_at) / Fold change /veh OLFML3 (11715873_a_at) / RFU LOC100653217 /// NTM (11731650_a_at) / Fold change /veh LOC100653217 /// NTM (11731650_a_at) / RFU MAPK11 (11762145_a_at) / Fold change /veh MAPK11 (11762145_a_at) / RFU FIZ1 (11724087_x_at) / Fold change /veh FIZ1 (11724087_x_at) / RFU OASL (11726364_x_at) / Fold change /veh OASL (11726364_x_at) / RFU SOX15 (11748057_x_at) / Fold change /veh SOX15 (11748057_x_at) / RFU CD79A (11719716_a_at) / Fold change /veh CD79A (11719716_a_at) / RFU HIST1H1D (11736915_at) / Fold change /veh HIST1H1D (11736915_at) / RFU CASKIN2 (11723855_a_at) / Fold change /veh CASKIN2 (11723855_a_at) / RFU LOC730098 (11760151_x_at) / Fold change /veh LOC730098 (11760151_x_at) / RFU OR4N2 (11742367_at) / Fold change /veh OR4N2 (11742367_at) / RFU PRRT2 (11749266_a_at) / Fold change /veh PRRT2 (11749266_a_at) / RFU SNX32 (11753110_a_at) / Fold change /veh SNX32 (11753110_a_at) / RFU CDHR5 (11726645_a_at) / Fold change /veh CDHR5 (11726645_a_at) / RFU RCAN1 (11760418_a_at) / Fold change /veh RCAN1 (11760418_a_at) / RFU FAM167A (11723789_a_at) / Fold change /veh FAM167A (11723789_a_at) / RFU FAM26E (11764081_at) / Fold change /veh FAM26E (11764081_at) / RFU ISYNA1 (11749810_s_at) / Fold change /veh ISYNA1 (11749810_s_at) / RFU ACY1 (11761880_at) / Fold change /veh ACY1 (11761880_at) / RFU 11764098_at / Fold change /veh 11764098_at / RFU SAMD14 (11745864_x_at) / Fold change /veh SAMD14 (11745864_x_at) / RFU NPB (11741838_a_at) / Fold change /veh NPB (11741838_a_at) / RFU TMPRSS6 (11731388_a_at) / Fold change /veh TMPRSS6 (11731388_a_at) / RFU KRTAP10-2 (11738614_at) / Fold change /veh KRTAP10-2 (11738614_at) / RFU ARHGAP8 /// PRR5-ARHGAP8 (11727945_x_at) / Fold change /veh ARHGAP8 /// PRR5-ARHGAP8 (11727945_x_at) / RFU KRTAP5-7 /// NADSYN1 (11734609_at) / Fold change /veh KRTAP5-7 /// NADSYN1 (11734609_at) / RFU RASL12 (11751679_a_at) / Fold change /veh RASL12 (11751679_a_at) / RFU CDKN2B (11736163_a_at) / Fold change /veh CDKN2B (11736163_a_at) / RFU PRF1 (11729649_at) / Fold change /veh PRF1 (11729649_at) / RFU, ZNF638 /// ZNF638-IT1 / Fold change vs veh, ZNF638 /// ZNF638-IT1 / RFU, PANK3 / Fold change vs veh, PANK3 / RFU, SH3YL1 / Fold change vs veh, SH3YL1 / RFU, ZEB2 / Fold change vs veh, ZEB2 / RFU, NRIP1 / Fold change vs veh, NRIP1 / RFU, PTTG1IP / Fold change vs veh, PTTG1IP / RFU, CAPN2 / Fold change vs veh, CAPN2 / RFU, MED14 / Fold change vs veh, MED14 / RFU, SNORA58 / Fold change vs veh, SNORA58 / RFU, C1orf63 / Fold change vs veh, C1orf63 / RFU, LRRFIP1 / Fold change vs veh, LRRFIP1 / RFU, NDUFAF7 / Fold change vs veh, NDUFAF7 / RFU, SLC12A2 / Fold change vs veh, SLC12A2 / RFU, IBTK / Fold change vs veh, IBTK / RFU, ESF1 / Fold change vs veh, ESF1 / Fold change vs veh, TMEM50B / RFU, TAOK1 / Fold change vs veh, TAOK1 / RFU, ACBD3 / Fold change vs veh, ACBD3 / RFU, TMA16 / Fold change vs veh, TMA16 / RFU, RWDD3 / Fold change vs veh, RWDD3 / RFU, BCAT1 / Fold change vs veh, BCAT1 / RFU, EDEM3 / Fold change vs veh, EDEM3 / RFU, TMEM33 / Fold change vs veh, TMEM33 / RFU, WDR75 / Fold change vs veh, WDR75 / RFU, AHCTF1 / Fold change vs veh, AHCTF1 / RFU, TFRC / Fold change vs veh, TFRC / RFU, ZDHHC17 / Fold change vs veh, ZDHHC17 / RFU, NOM1 / Fold change vs veh, NOM1 / RFU, ARL8B / Fold change vs veh, ARL8B / RFU, ZBTB11 / Fold change vs veh, ZBTB11 / RFU, TAMM41 / Fold change vs veh, TAMM41 / RFU, KIAA1704 /// LOC100996395 / Fold change vs veh, KIAA1704 /// LOC100996395 / RFU, ING1 / Fold change vs veh, ING1 / RFU, TRMT61B / Fold change vs veh, TRMT61B / RFU, FUBP3 / Fold change vs veh, FUBP3 / RFU, TP53 / Fold change vs veh, TP53 / RFU, TNKS2 / Fold change vs veh, TNKS2 / RFU, ZFP14 / Fold change vs veh, ZFP14 / RFU, ACTR2 / Fold change vs veh, ACTR2 / RFU, PPP3R1 / Fold change vs veh, PPP3R1 / RFU, PIK3R1 / Fold change vs veh, PIK3R1 / RFU, HNRNPA1 / Fold change vs veh, HNRNPA1 / RFU, RNF170 / Fold change vs veh, RNF170 / RFU, ZNF28 / Fold change vs veh, ZNF28 / RFU, RNGTT / Fold change vs veh, RNGTT / RFU, OGT / Fold change vs veh, OGT / RFU, BRD1 / Fold change vs veh, BRD1 / RFU, MARS / Fold change vs veh, MARS / RFU, ZNF655 / Fold change vs veh, ZNF655 / RFU, FAHD1 / Fold change vs veh, FAHD1 / RFU, BDP1 / Fold change vs veh, BDP1 / RFU, LRRCC1 / Fold change vs veh, LRRCC1 / RFU, ARID1A / Fold change vs veh, ARID1A / RFU, ZNF146 / Fold change vs veh, ZNF146 / RFU, ZNF330 / Fold change vs veh, ZNF330 / RFU, GPN3 / Fold change vs veh, GPN3 / RFU, C9orf123 / Fold change vs veh, C9orf123 / RFU, N4BP2L2 / Fold change vs veh, N4BP2L2 / RFU, ARFIP1 / Fold change vs veh, ARFIP1 / RFU, FAM179B / Fold change vs veh, FAM179B / RFU, BCL10 / Fold change vs veh, BCL10 / RFU, UHRF1BP1L / Fold change vs veh, UHRF1BP1L / RFU, BET1 / Fold change vs veh, BET1 / RFU, CNOT2 / Fold change vs veh, CNOT2 / RFU, ZNF268 / Fold change vs veh, ZNF268 / Fold change vs veh, ZNF507 / RFU, DGCR2 / Fold change vs veh, DGCR2 / RFU, WDSUB1 / Fold change vs veh, WDSUB1 / Fold change vs veh, HSP90B1 /// MIR3652 / RFU, ADSS / Fold change vs veh, ADSS / RFU, GK / Fold change vs veh, GK / RFU, ZNF148 / Fold change vs veh, ZNF148 / RFU, TAF9 / Fold change vs veh, TAF9 / RFU, SLC1A5 / Fold change vs veh, SLC1A5 / RFU, SLMO2 / Fold change vs veh, SLMO2 / RFU, ABCC4 / Fold change vs veh, ABCC4 / RFU, LOC101060439 /// RAP1B / Fold change vs veh, LOC101060439 /// RAP1B / RFU, RFX7 / Fold change vs veh, RFX7 / RFU, GTPBP10 / Fold change vs veh, GTPBP10 / RFU, CNEP1R1 / Fold change vs veh, CNEP1R1 / RFU, BIVM-ERCC5 /// ERCC5 / Fold change vs veh, BIVM-ERCC5 /// ERCC5 / RFU, ILF3 / Fold change vs veh, ILF3 / RFU 11762660_at / Fold change /veh 11762660_at / RFU VCAN (11757783_s_at) / Fold change /veh VCAN (11757783_s_at) / RFU DDX43 (11728927_at) / Fold change /veh DDX43 (11728927_at) / RFU KRT8 (11758188_x_at) / Fold change /veh KRT8 (11758188_x_at) / RFU NKD1 (11759106_at) / Fold change /veh NKD1 (11759106_at) / RFU SRD5A1 (11742802_a_at) / Fold change /veh SRD5A1 (11742802_a_at) / RFU TPSAB1 /// TPSB2 (11721975_s_at) / Fold change /veh TPSAB1 /// TPSB2 (11721975_s_at) / RFU GSTM3 (11746129_a_at) / Fold change /veh GSTM3 (11746129_a_at) / RFU IL23R (11737362_x_at) / Fold change /veh IL23R (11737362_x_at) / RFU TMEM51 (11727254_a_at) / Fold change /veh TMEM51 (11727254_a_at) / RFU PIWIL2 (11732686_x_at) / Fold change /veh PIWIL2 (11732686_x_at) / RFU ORM1 (11744905_x_at) / Fold change /veh ORM1 (11744905_x_at) / RFU CCDC152 (11743942_at) / Fold change /veh CCDC152 (11743942_at) / RFU ECM1 (11717891_a_at) / Fold change /veh ECM1 (11717891_a_at) / RFU IL23R (11748794_a_at) / Fold change /veh IL23R (11748794_a_at) / RFU TNFAIP8L3 (11732012_x_at) / Fold change /veh TNFAIP8L3 (11732012_x_at) / RFU MBOAT4 (11741988_at) / Fold change /veh MBOAT4 (11741988_at) / RFU 11764193_at / Fold change /veh 11764193_at / RFU TMEM53 (11763286_at) / Fold change /veh TMEM53 (11763286_at) / RFU MAGEB2 (11727129_at) / Fold change /veh MAGEB2 (11727129_at) / RFU TMEM200A (11744735_a_at) / Fold change /veh TMEM200A (11744735_a_at) / RFU CCDC152 (11751479_a_at) / Fold change /veh CCDC152 (11751479_a_at) / RFU FAM211A (11726209_a_at) / Fold change /veh FAM211A (11726209_a_at) / RFU RGS16 (11746705_a_at) / Fold change /veh RGS16 (11746705_a_at) / RFU VCAN (11755009_s_at) / Fold change /veh VCAN (11755009_s_at) / RFU RHOB (11743442_s_at) / Fold change /veh RHOB (11743442_s_at) / RFU RGS16 (11720943_a_at) / Fold change /veh RGS16 (11720943_a_at) / RFU RGS16 (11720944_at) / Fold change /veh RGS16 (11720944_at) / RFU, VPS4B / Fold change vs veh, VPS4B / RFU, CREB1 / Fold change vs veh, CREB1 / RFU, DNAJC13 / Fold change vs veh, DNAJC13 / RFU, GNAQ / Fold change vs veh, GNAQ / RFU, CDK5R1 / Fold change vs veh, CDK5R1 / RFU, ZRANB3 / Fold change vs veh, ZRANB3 / RFU, CUL4A / Fold change vs veh, CUL4A / RFU, CCNY / Fold change vs veh, CCNY / RFU, UFL1 / Fold change vs veh, UFL1 / RFU, COG3 / Fold change vs veh, COG3 / RFU, DIAPH2 / Fold change vs veh, DIAPH2 / RFU, SKA2 / Fold change vs veh, SKA2 / RFU, AFF3 / Fold change vs veh, AFF3 / RFU, LMF1 / Fold change vs veh, LMF1 / RFU, IPO11 / Fold change vs veh, IPO11 / RFU, DFFB / Fold change vs veh, DFFB / RFU, FOXP1 / Fold change vs veh, FOXP1 / RFU, CARD8 / Fold change vs veh, CARD8 / RFU, STRN3 / Fold change vs veh, STRN3 / RFU, ADK / Fold change vs veh, ADK / RFU, RASSF2 / Fold change vs veh, RASSF2 / RFU, WIPF1 / Fold change vs veh, WIPF1 / RFU, LARP1B / Fold change vs veh, LARP1B / RFU, RASA1 / Fold change vs veh, RASA1 / RFU, RB1 / Fold change vs veh, RB1 / RFU, PPFIA1 / Fold change vs veh, PPFIA1 / RFU, MAT2A / Fold change vs veh, MAT2A / RFU, CCT5 / Fold change vs veh, CCT5 / RFU, WDR92 / Fold change vs veh, WDR92 / RFU, CUX1 / Fold change vs veh, CUX1 / RFU, TTC7A / Fold change vs veh, TTC7A / RFU, TMEM135 / Fold change vs veh, TMEM135 / RFU, DEPTOR / Fold change vs veh, DEPTOR / RFU, CPM / Fold change vs veh, CPM / RFU, DNAJB6 / Fold change vs veh, DNAJB6 / RFU, CACNA2D3 / Fold change vs veh, CACNA2D3 / RFU, DTX4 / Fold change vs veh, DTX4 / RFU, TFCP2 / Fold change vs veh, TFCP2 / RFU, GMCL1 /// GMCL1P1 / Fold change vs veh, GMCL1 /// GMCL1P1 / RFU, AEBP2 / Fold change vs veh, AEBP2 / RFU, SNHG1 /// SNORD22 /// SNORD25 /// SNORD26 /// SNORD27 /// SNORD28 /// SNORD29 /// SNORD31 / Fold change vs veh, SNHG1 /// SNORD22 /// SNORD25 /// SNORD26 /// SNORD27 /// SNORD28 /// SNORD29 /// SNORD31 / Fold change (Aza/veh), C12orf56 (ProbeSet 11735607_a_at) / Fold change (ACY-1035/veh), C12orf56 (ProbeSet 11735607_a_at) / Fold change (Aza/veh), FGFR1OP (ProbeSet 11751329_s_at) / Fold change (ACY-1035/veh), FGFR1OP (ProbeSet 11751329_s_at) / Fold change (Aza/veh), VPS36 (ProbeSet 11739960_a_at) / Fold change (ACY-1035/veh), VPS36 (ProbeSet 11739960_a_at) / RFU SYPL1 (11715823_x_at) / Fold change /veh SYPL1 (11715823_x_at) / RFU IGFBP7 (11715501_s_at) / Fold change /veh IGFBP7 (11715501_s_at) / RFU REEP3 (11722064_at) / Fold change /veh REEP3 (11722064_at) / RFU IGLL1 (11728026_x_at) / Fold change /veh IGLL1 (11728026_x_at): dose or concentration left out as unconfirmed
Details: ProbeSet 11724526_at; LIST B

SMILES: Nc1ncn([C@@H]2O[C@H](CO)[C@@H](O)[C@H]2O)c(=O)n1 [azacitidine]
- RFU, FAHD1: 119.69 RFU
